US11530244B2, “Cyclic polypeptides for PCSK9 inhibition” (priority 2018, dated 2022)
Starred links: 1 amine or outer side, 2 acyl side, 3 side chain; linkers in the order of their positions; H or OH if unused. Positions of bridges follow the written chain, without caps; N, C: chain ends. Non-standard residues stand in square brackets, D forms with d. Residues, ends and D or L forms follow the SMILES beside them. Groups on a side chain read outwards from the residue. *: point of attachment. Phe(3-CH2NH2) = O=C([C@H](Cc1cccc(CN[*:3])c1)N[*:1])[*:2]; X29 = O=C([C@H](Cc1ccc(CC=[*:3])cc1)N[*:1])[*:2]; Ala(imidazol-2-yl) = N[C@@H](Cc1ncc[nH]1)C(=O)O; X32 = O=C(CCc1cccc2c1oc1c(CCN[*:1])cccc12)[*:2]; Trp(5-F) = N[C@@H](Cc1c[nH]c2ccc(F)cc12)C(=O)O; Phe(4-CH2NH2) = NCc1ccc(C[C@H](N)C(=O)O)cc1; X3 = O=C(CCSCc1cc(F)cc(CSCCN[*:1])c1)[*:2]; Pro(cis-4-F) = O=C(O)[C@@H]1C[C@H](F)CN1; Hag = O=C([C@H](CCC=[*:3])N[*:1])[*:2]; γGlu = O=C(O)[C@H](CCC(=O)[*:2])N[*:1]; Propanoyl(3,3,3-F3) = O=C(CC(F)(F)F)*; mXylylene = c1cc(C[*:1])cc(C[*:2])c1; AEF = NCCOc1ccc(C[C@H](N)C(=O)O)cc1; Adipoyl = O=C(CCCCC(=O)[*:2])[*:1]; Lys(Me2) = CN(C)CCCC[C@H](N)C(=O)O; Palmitoyl = CCCCCCCCCCCCCCCC(=O)*; PEG4 = NCCOCCOCCOCCOCCC(=O)O; αMeP = C[C@@]1(C(=O)O)CCCN1; 3Amb = NCc1cccc(C(=O)O)c1; Aun = NCCCCCCCCCCC(=O)O; AEEA = NCCOCCOCC(=O)O; Propionyl = CCC(=O)*; Glycolyl = O=C(CO)*; Mpa = O=C(O)CCS

Tests used:
PCSK9 [1] = molecular target: T1, PCSK9 (Homo sapiens (Human), UniProt Q8NBP7); assay: PCSK9 Alexa FRET Plus assay (displacement of AlexaFluor647 tagged cyclic peptide Reagent B); format: binding; settings: Alexa FRET Plus, 0.5 nM PCSK9, 960 nM AF cyclic peptide Reagent B; read-out: IC50
T1 sequence (Q8NBP7 153-692): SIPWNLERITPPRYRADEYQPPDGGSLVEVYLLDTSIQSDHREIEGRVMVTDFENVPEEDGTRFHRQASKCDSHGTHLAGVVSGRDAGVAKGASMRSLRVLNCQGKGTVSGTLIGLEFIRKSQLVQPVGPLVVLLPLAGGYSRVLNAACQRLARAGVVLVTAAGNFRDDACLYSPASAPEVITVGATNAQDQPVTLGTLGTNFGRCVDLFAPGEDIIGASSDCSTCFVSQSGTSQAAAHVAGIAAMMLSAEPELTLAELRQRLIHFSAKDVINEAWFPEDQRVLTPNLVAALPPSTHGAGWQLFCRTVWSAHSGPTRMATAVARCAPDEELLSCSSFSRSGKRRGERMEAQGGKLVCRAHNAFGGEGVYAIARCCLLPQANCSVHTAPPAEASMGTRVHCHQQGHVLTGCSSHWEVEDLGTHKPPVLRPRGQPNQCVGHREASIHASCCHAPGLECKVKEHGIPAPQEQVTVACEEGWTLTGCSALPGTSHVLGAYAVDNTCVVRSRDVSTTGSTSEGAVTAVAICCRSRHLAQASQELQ
Experimental: A solution containing 1 nM biotinylated PCSK9+2.5 nM Lance Streptavidin Europium (Strep-Eu) was made in 50 mM HEPES pH 7.4, 0.15 M NaCl, 5 mM CaCl2), 0.01% BSA, and 0.01% Surfactant P20. A separate solution containing 1920 nM of the AlexaFluor tagged cyclic peptide was made in the same buffer system. An Echo was used to transfer 0.075 ul of compound plus 0.675 ul of DMSO to each well of an assay plate followed by the addition of 15 ul of PCSK9+Stept-Eu and 15 ul of AF peptide. The final assay volume was 30.750 ul containing 0.5 nM PCSK9, 1.25 nM Strep-Eu, and 960 nM AF cyclic peptide. The reaction was incubated at room temperature for at least two hours prior to fluorescence measurements using an Envision Multilabel Reader. IC50 values were determined by fitting data to a sigmoidal dose-response curve using nonlinear regression. Ki was then calculated from the IC50 and the KD of AF cyclic peptide. Counts (B-counts) of the europium-labeled PCSK9 were followed to observe if compounds were adversely affecting PCSK9. A fall off of the B-counts likely indicated a false positive of inhibition. Data from this procedure was reported as “P=‘numerical value’ (nanomolar)”

PCSK9 [2] = molecular target: T1, PCSK9; assay: PCSK9 Alexa FRET Standard assay (displacement of AlexaFluor647 tagged cyclic peptide Reagent A); format: binding; settings: PCSK9 Alexa FRET Standard assay, 0.5 nM PCSK9, 20 nM AF cyclic peptide Reagent A; read-out: IC50
In short: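 TR-FRET displacement: 0.5 nM biotinylated PCSK9 with 1.25 nM Strep-Eu and 20 nM AlexaFluor-tagged cyclic peptide (final) in 50 mM HEPES pH 7.4, 0.15 M NaCl, 5 mM CaCl2, 0.01% BSA, 0.01% P20, ≥2 h at room temperature. IC50 from sigmoidal fit, converted to Ki via peptide KD; falling Eu counts flagged false positives.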

SMILES	IC50 (PCSK9 [1]) [nM]	IC50 (PCSK9 [2]) [nM]
COc1ccc(C[C@@H]2NC(=O)[C@H]([C@@H](C)O)NC(=O)[C@@H]3C[C@H](F)CN3C(=O)[C@H](Cc3c[nH]c4ccc(F)cc34)NC(=O)[C@H](Cc3c[nH]c4ccc(F)cc34)NC(=O)[C@@H](C)NC(=O)[C@H](CCCCN)NC(=O)[C@@H](NC(=O)CO)CC(=O)NCCOc3ccc(cc3)C[C@@H](C(N)=O)NC(=O)[C@]3(C)CCCN3C2=O)cc1 [Compound 116] (Glycolyl-DK[dA][Trp(5-F)][Trp(5-F)][Pro(cis-4-F)]TY(Me)[αMeP][AEF]-NH2; lactam 1-10)	500 to 5000	21000 to 50000
COc1ccc(C[C@@H]2NC(=O)[C@H]([C@@H](C)O)NC(=O)[C@@H]3C[C@H](F)CN3C(=O)[C@H](Cc3c[nH]c4ccc(F)cc34)NC(=O)[C@H](Cc3c[nH]c4ccc(F)cc34)NC(=O)[C@@H](C)NC(=O)[C@H](CCCCN)NC(=O)[C@@H](NC(C)=O)CCC/C=C\Cc3ccc(cc3)C[C@@H](C(N)=O)NC(=O)[C@]3(C)CCCN3C2=O)cc1 [Compound 137]	500 to 5000	21000 to 50000
CCCCCCCCCCCCCCCC(=O)N[C@@H](CCC(=O)NCCOCCOCC(=O)NCCOCCOCC(=O)NCCCC[C@H](NC(C)=O)C(=O)NCCOCCOCCOCCOCCOCCOCCOCCOCCOCCOCCOCCOCCC(=O)N[C@@H]1CSCc2cccc(c2)CSC[C@@H](C(N)=O)NC(=O)[C@]2(C)CCCN2C(=O)[C@H](Cc2ccc(O)cc2)NC(=O)[C@H]([C@@H](C)O)NC(=O)N2C[C@@H](F)C[C@H]2C(=O)[C@H](Cc2c[nH]c3ccc(F)cc23)NC(=O)[C@H](Cc2c[nH]c3ccc(F)cc23)NC(=O)[C@@H](C)NC(=O)[C@H](C)NC1=O)C(=O)O [Compound 136]	0.1 to 100	0.11 to 100
CCCCCCCCCCCCCCCC(=O)N[C@@H](CCC(=O)NCCOCCOCC(=O)NCCOCCOCC(=O)NCc1cccc(C[C@@H]2NC(=O)[C@@H](C)NC(=O)[C@H](CCCCN)NC(=O)CCSCc3cccc(c3)CSC[C@@H](C(N)=O)NC(=O)[C@]3(C)CCCN3C(=O)[C@H](Cc3ccc(O)cc3)NC(=O)[C@H](Cc3cnc[nH]3)NC(=O)[C@H](CC(=O)O)NC(=O)[C@H](Cc3c[nH]c4ccc(F)cc34)NC2=O)c1)C(=O)O [Compound 454] ([Mpa]K[dA][Phe(3-CH2NH2)]([AEEA-AEEA-γGlu-Palmitoyl])[Trp(5-F)]DHY[αMeP]C-NH2; linker 1-10 via mXylylene)	100 to 500	0.11 to 100
COc1ccc(C[C@@H]2NC(=O)[C@H]([C@@H](C)O)NC(=O)[C@@H]3C[C@H](F)CN3C(=O)[C@H](Cc3c[nH]c4ccc(F)cc34)NC(=O)[C@H](Cc3c[nH]c4ccc(F)cc34)NC(=O)[C@@H](C)NC(=O)[C@H](CCCCN)NC(=O)[C@@H](NC(C)=O)CC/C=C/Cc3ccc(cc3)C[C@@H](C(N)=O)NC(=O)[C@]3(C)CCCN3C2=O)cc1 [Compound 138] (Ac-[Hag]K[dA][Trp(5-F)][Trp(5-F)][Pro(cis-4-F)]TY(Me)[αMeP][X29]-NH2; staple (E) 1-10)	500 to 5000	100 to 1000
C[C@@]12CCCN1C(=O)[C@H](Cc1ccc(O)cc1)NC(=O)[C@H](Cc1cnc[nH]1)NC(=O)[C@H](CC(=O)O)NC(=O)[C@H](Cc1c[nH]c3ccc(F)cc13)NC(=O)[C@H](Cc1c[nH]c3ccc(F)cc13)NC(=O)CNC(=O)[C@H](CCCCNC(=O)CCOCCOCCOCCOCCN)NC(=O)CCSCc1cccc(c1)CSC[C@@H](C(N)=O)NC2=O [Compound 485] ([Mpa]K(PEG4)G[Trp(5-F)][Trp(5-F)]DHY[αMeP]C-NH2; linker 1-10 via mXylylene)	0.1 to 100	0.11 to 100
CCC(=O)N[C@H]1CC(=O)NCCOc2ccc(cc2)C[C@@H](C(N)=O)NC(=O)[C@]2(C)CCCN2C(=O)[C@H](Cc2ccc(OC)cc2)NC(=O)[C@H]([C@@H](C)O)NC(=O)[C@@H]2C[C@H](F)CN2C(=O)[C@H](Cc2c[nH]c3ccc(F)cc23)NC(=O)[C@H](Cc2c[nH]c3ccc(F)cc23)NC(=O)[C@@H](C)NC(=O)[C@H](CCCCN)NC1=O [Compound 118] (Propionyl-DK[dA][Trp(5-F)][Trp(5-F)][Pro(cis-4-F)]TY(Me)[αMeP][AEF]-NH2; lactam 1-10)	500 to 5000	21000 to 50000
C[C@H]1NC(=O)[C@H](CCCCN)NC(=O)CCSCc2cccc(c2)CSC[C@@H](C(N)=O)NC(=O)[C@]2(C)CCCN2C(=O)[C@H](Cc2ccc(O)cc2)NC(=O)c2cccc(c2)CNC(=O)[C@H](Cc2c[nH]c3ccc(F)cc23)NC(=O)[C@H](Cc2c[nH]c3ccc(F)cc23)NC1=O [Compound 089] ([Mpa]K[dA][Trp(5-F)][Trp(5-F)][3Amb]Y[αMeP]C-NH2; linker 1-9 via mXylylene)	0.1 to 100	0.11 to 100
C[C@@]12CCCN1C(=O)[C@H](Cc1ccc(O)cc1)NC(=O)CCc1cccc3c1Oc1c(cccc1-3)CCNC(=O)[C@H](Cc1c[nH]c3ccc(F)cc13)NC(=O)[C@H](Cc1c[nH]c3ccc(F)cc13)NC(=O)CNC(=O)[C@H](CCCCN)NC(=O)CCSCc1cccc(c1)CSC[C@H](C(N)=O)NC2=O [Compound 120] ([Mpa]KG[Trp(5-F)][Trp(5-F)][X32]Y[αMeP][dC]-NH2; linker 1-9 via mXylylene)	500 to 5000	1000 to 12100
CCCCCCCCCCCCCCCC(=O)N[C@@H](CCC(=O)NCCOCCOCC(=O)NCCOCCOCC(=O)NCCCC[C@H](NC(=O)CCCCCCCCCCNC(=O)[C@@H]1CSCc2cccc(c2)CSCCC(=O)N[C@@H](CCCCN)C(=O)N[C@H](C)C(=O)N[C@@H](Cc2c[nH]c3ccc(F)cc23)C(=O)N[C@@H](Cc2c[nH]c3ccc(F)cc23)C(=O)N[C@@H](CC(=O)O)C(=O)N[C@@H](Cc2cnc[nH]2)C(=O)N[C@@H](Cc2ccc(O)cc2)C(=O)N2CCC[C@@]2(C)C(=O)N1)C(N)=O)C(=O)O [Compound 479] ([Mpa]K[dA][Trp(5-F)][Trp(5-F)]DHY[αMeP]C[Aun]K([AEEA-AEEA-γGlu-Palmitoyl])-NH2; linker 1-10 via mXylylene)	500 to 5000	0.11 to 100
CCCCCCCCCCCCCCCC(=O)N[C@@H](CCC(=O)NCCOCCOCC(=O)NCCOCCOCC(=O)NCc1cccc(C[C@@H]2NC(=O)[C@@H](C)NC(=O)[C@H](CCCCN)NC(=O)CCSCc3cccc(c3)CSC[C@@H](C(N)=O)NC(=O)[C@]3(C)CCCN3C(=O)[C@H](Cc3ccc(O)cc3)NC(=O)[C@H](Cc3cnc[nH]3)NC(=O)[C@H](CC(=O)O)NC(=O)[C@H](Cc3c[nH]c4ccc(F)cc34)NC2=O)c1)C(=O)O [Compound 476] ([Mpa]K[dA][Phe(3-CH2NH2)]([AEEA-AEEA-γGlu-Palmitoyl])[Trp(5-F)]DHY[αMeP]C-NH2; linker 1-10 via mXylylene)	100 to 500	0.11 to 100
COc1ccc(C[C@@H]2NC(=O)[C@H](Cc3ncc[nH]3)NC(=O)[C@H](CC(=O)O)NC(=O)[C@H](Cc3c[nH]c4ccc(F)cc34)NC(=O)[C@H](Cc3c[nH]c4ccc(F)cc34)NC(=O)[C@@H](C)NC(=O)[C@H](CCCCN(C)C)NC(=O)CCSCc3cc(F)cc(c3)CSCCNC(=O)[C@]3(C)CCCN3C2=O)cc1 [Compound 466] (cyclo(D[Ala(imidazol-2-yl)]Y(Me)[αMeP][X3][Lys(Me2)][dA][Trp(5-F)][Trp(5-F)]))	500 to 5000	100 to 1000
C[C@@]12CCCN1C(=O)[C@H](Cc1ccc(O)cc1)NC(=O)CN1C(=O)[C@@H](N=C(C3CCCCC3)c3ccccc31)NC(=O)[C@H](Cc1c[nH]c3ccc(F)cc13)NC(=O)[C@H](Cc1c[nH]c3ccc(F)cc13)NC(=O)CNC(=O)[C@H](CCCCN)NC(=O)CCSCc1cccc(c1)CSC[C@@H](C(N)=O)NC2=O [Compound 129]	500 to 5000	0.11 to 100
COc1ccc(C[C@@H]2NC(=O)[C@H](Cc3cnc[nH]3)NC(=O)[C@H](CC(=O)O)NC(=O)[C@H](Cc3c[nH]c4ccc(F)cc34)NC(=O)[C@H](Cc3c[nH]c4ccc(F)cc34)NC(=O)[C@@H](C)NC(=O)CCCCC(=O)NCc3ccc(cc3)C[C@@H](C(N)=O)NC(=O)[C@]3(C)CCCN3C2=O)cc1 [Compound 419] ([dA][Trp(5-F)][Trp(5-F)]DHY(Me)[αMeP][Phe(4-CH2NH2)]-NH2; linker N-8 via Adipoyl)	500 to 5000	100 to 1000
COc1ccc(C[C@@H]2NC(=O)[C@H]([C@H](C)O)NC(=O)[C@@H]3CCCc4cn(nn4)CC[C@H](NC(=O)[C@@H](C)NC(=O)[C@H](C)NC(=O)CCSCc4cccc(c4)CSCCNC(=O)[C@]4(C)CCCN4C2=O)C(=O)N[C@@H](Cc2c[nH]c4ccc(F)cc24)C(=O)N3)cc1 [Compound 525]	500 to 5000	100 to 1000
COc1ccc(C[C@@H]2NC(=O)[C@H]([C@@H](C)O)NC(=O)[C@@H]3C[C@H](F)CN3C(=O)[C@H](Cc3c[nH]c4ccc(F)cc34)NC(=O)[C@H](Cc3c[nH]c4ccc(F)cc34)NC(=O)[C@@H](C)NC(=O)[C@H](CCCCN)NC(=O)[C@@H](NC(=O)CC(F)(F)F)CC(=O)NCCOc3ccc(cc3)C[C@@H](C(N)=O)NC(=O)[C@]3(C)CCCN3C2=O)cc1 [Compound 114] ({Propanoyl(3,3,3-F3)}-DK[dA][Trp(5-F)][Trp(5-F)][Pro(cis-4-F)]TY(Me)[αMeP][AEF]-NH2; lactam 1-10)	500 to 5000	21000 to 50000
